This note sets out measurements from US20190307776A1, “AZA-S[…] HUMAN IMMUNODEFICIENCY VIRUS REPLICATION” (priority 2016, published 2019).

For the experiment, the system named is recombinant NL4-3 virus. Nature of the experiment: HIV cell culture assay. Format: cell-based. The conditions noted are these: Human immunodeficiency virus 1, NL43, MT2. An outline of the steps: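 Antiviral activity measured in MT-2 cells infected 4–5 days with NL4-3 carrying Renilla luciferase in place of part of nef plus Gag P373S, in the presence of serial inhibitor dilutions. Read-out was luciferase activity by Dual Luciferase lysis/substrate mix.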
One may read the EC50 as the concentration that produces a half-maximal response. `C=C(C)[C@@H]1CC[C@]2(CNCCCN3CCS(=O)(=O)CC3)CC[C@]3(C)[C@H](CC[C@@H]4[C@@]5(C)CCN(C(=O)C(=O)O)C(C)(C)[C@@H]5CC[C@]43C)[C@@H]12` [Example 37, 2-((4aR,6aR,6bR,8aS,11R,11aR,11bR,13aR,13bR)-8a-(((3-(1,1-dioxidothiomorpholino)propyl)amino)methyl)-4,4,6a,6b,13b-pentamethyl-11-(prop-1-en-2-yl)hexadecahydro-1H-cyclopenta[5,6]naphtho[2,1-f]isoquinolin-3(2H,4H,13bH)-yl)-2-oxoacetic acid]: the EC50 was > 3000 nM.

`C=C(C)[C@@H]1CC[C@]2(CNCCCN3CCS(=O)(=O)CC3)CC[C@]3(C)[C@H](CC[C@@H]4[C@@]5(C)CCN(C(=O)C(=O)NC(C)(C)C(=O)O)C(C)(C)[C@@H]5CC[C@]43C)[C@@H]12` [Example 38, 2-(2-((4aR,6aR,6bR,8aS,11R,11aR,11bR,13aR,13bR)-8a-(((3-(1,1-dioxidothiomorpholino)propyl)amino)methyl)-4,4,6a,6b,13b-pentamethyl-11-(prop-1-en-2-yl)hexadecahydro-1H-cyclopenta[5,6]naphtho[2,1-f]isoquinolin-3(2H,4H,13bH)-yl)-2-oxoacetamido)-2-methylpropanoic acid]: the EC50 is > 3000 nM.

In the case of `C=C(C)[C@@H]1CC[C@]2(CNCCCN3CCS(=O)(=O)CC3)CC[C@]3(C)[C@H](CC[C@@H]4[C@@]5(C)CCN(C(=O)C(=O)NC6(C(=O)O)CC6)C(C)(C)[C@@H]5CC[C@]43C)[C@@H]12` [Example 39, 1-(2-((4aR,6aR,6bR,8aS,11R,11aR,11bR,13aR,13bR)-8a-(((3-(1,1-dioxidothiomorpholino)propyl)amino)methyl)-4,4,6a,6b,13b-pentamethyl-11-(prop-1-en-2-yl)hexadecahydro-1H-cyclopenta[5,6]naphtho[2,1-f]isoquinolin-3(2H,4H,13bH)-yl)-2-oxoacetamido)cyclopropanecarboxylic acid], the EC50 was > 3000 nM.

In the case of `C=C(C)[C@@H]1CC[C@]2(CNCCCN3CCS(=O)(=O)CC3)CC[C@]3(C)[C@H](CC[C@@H]4[C@@]5(C)CCN(c6ccc(C#N)cn6)C(C)(C)[C@@H]5CC[C@]43C)[C@@H]12` [Example 40, 6-((4aR,6aR,6bR,8aS,11R,11aR,11bR,13aR,13bR)-8a-(((3-(1,1-dioxidothiomorpholino)propyl)amino)methyl)-4,4,6a,6b,13b-pentamethyl-11-(prop-1-en-2-yl)hexadecahydro-1H-cyclopenta[5,6]naphtho[2,1-f]isoquinolin-3(2H,4H,13bH)-yl)nicotinonitrile], the EC50 worked out at 760 nM.

Take `C=C(C)[C@@H]1CC[C@]2(CNCCCN3CCS(=O)(=O)CC3)CC[C@]3(C)[C@H](CC[C@@H]4[C@@]5(C)CCN(c6ccc(C(N)=O)cn6)C(C)(C)[C@@H]5CC[C@]43C)[C@@H]12` [Example 41, 6-((4aR,6aR,6bR,8aS,11R,11aR,11bR,13aR,13bR)-8a-(((3-(1,1-dioxidothiomorpholino)propyl)amino)methyl)-4,4,6a,6b,13b-pentamethyl-11-(prop-1-en-2-yl)hexadecahydro-1H-cyclopenta[5,6]naphtho[2,1-f]isoquinolin-3(2H,4H,13bH)-yl)nicotinamide]: the half-maximal effective concentration (EC50) is 400 nM.

`C=C(C)[C@@H]1CC[C@]2(CNCCCN3CCS(=O)(=O)CC3)CC[C@]3(C)[C@H](CC[C@@H]4[C@@]5(C)CCN(c6ccc(C(=O)O)cn6)C(C)(C)[C@@H]5CC[C@]43C)[C@@H]12` [Example 42, 6-((4aR,6aR,6bR,8aS,11R,11aR,11bR,13aR,13bR)-8a-(((3-(1,1-dioxidothiomorpholino)propyl)amino)methyl)-4,4,6a,6b,13b-pentamethyl-11-(prop-1-en-2-yl)hexadecahydro-1H-cyclopenta[5,6]naphtho[2,1-f]isoquinolin-3(2H,4H,13bH)-yl)nicotinic acid]: the 50% effective concentration (EC50) turned out to be 3 nM.

For `C=C(C)[C@@H]1CC[C@]2(CNCCCN3CCS(=O)(=O)CC3)CC[C@]3(C)[C@H](CC[C@@H]4[C@@]5(C)CCN(c6ccc(C#N)nc6)C(C)(C)[C@@H]5CC[C@]43C)[C@@H]12` [Example 43, 5-((4aR,6aR,6bR,8aS,11R,11aR,11bR,13aR,13bR)-8a-(((3-(1,1-dioxidothiomorpholino)propyl)amino)methyl)-4,4,6a,6b,13b-pentamethyl-11-(prop-1-en-2-yl)hexadecahydro-1H-cyclopenta[5,6]naphtho[2,1-f]isoquinolin-3(2H,4H,13bH)-yl)picolinonitrile], the concentration for a half-maximal effect (EC50) turned out to be 280 nM.

For `C=C(C)[C@@H]1CC[C@]2(CNCCCN3CCS(=O)(=O)CC3)CC[C@]3(C)[C@H](CC[C@@H]4[C@@]5(C)CCN(c6ccc(C(=O)O)nc6)C(C)(C)[C@@H]5CC[C@]43C)[C@@H]12` [Example 44, 5-((4aR,6aR,6bR,8aS,11R,11aR,11bR,13aR,13bR)-8a-(((3-(1,1-dioxidothiomorpholino)propyl)amino)methyl)-4,4,6a,6b,13b-pentamethyl-11-(prop-1-en-2-yl)hexadecahydro-1H-cyclopenta[5,6]naphtho[2,1-f]isoquinolin-3(2H,4H,13bH)-yl)picolinic acid], the concentration giving a half-maximal response (EC50) was determined as 7 nM.

For the compound `C=C(C)[C@@H]1CC[C@]2(CNCCCN3CCS(=O)(=O)CC3)CC[C@]3(C)[C@H](CC[C@@H]4[C@@]5(C)CCN(c6ccc(C(=O)O)c(F)c6)C(C)(C)[C@@H]5CC[C@]43C)[C@@H]12` [Example 45, 4-((4aR,6aR,6bR,8aS,11R,11aR,11bR,13aR,13bR)-8a-(((3-(1,1-dioxidothiomorpholino)propyl)amino)methyl)-4,4,6a,6b,13b-pentamethyl-11-(prop-1-en-2-yl)icosahdro-3H-cyclopenta[5,6]naphtho[2,1-f]isoquinolin-3-yl)-2-fluorobenzoic acid], the EC50 amounted to 20 nM.

For `C=C(C)[C@@H]1CC[C@]2(CNCCCN3CCS(=O)(=O)CC3)CC[C@]3(C)[C@H](CC[C@@H]4[C@@]5(C)CCN(c6ccc([N+](=O)[O-])cc6)C(C)(C)[C@@H]5CC[C@]43C)[C@@H]12` [Example 46, 4-(3-((((4aR,6aR,6bR,8aS,11R,11aR,11bR,13aR,13bR)-4,4,6a,6b,13b-pentamethyl-3-(4-nitrophenyl)-11-(prop-1-en-2-yl)icosahydro-1H-cyclopenta[5,6]naphtho[2,1-f]isoquinolin-8a-yl)methyl)amino)propyl)thiomorpholine 1,1-dioxide], the EC50 is > 330 nM.

For the compound `C=C(C)[C@@H]1CC[C@]2(CNCCCN3CCS(=O)(=O)CC3)CC[C@]3(C)[C@H](CC[C@@H]4[C@@]5(C)CCN(c6ccc(N)cc6)C(C)(C)[C@@H]5CC[C@]43C)[C@@H]12` [Example 47, 4-(3-((((4aR,6aR,6bR,8aS,11R,11aR,11bR,13aR,13bR)-3-(4-aminophenyl)-4,4,6a,6b,13b-pentamethyl-11-(prop-1-en-2-yl)icosahydro-1H-cyclopenta[5,6]naphtho[2,1-f]isoquinolin-8a-yl)methyl)amino)propyl)thiomorpholine 1,1-dioxide], the EC50 was > 330 nM.

Consider `C=C(C)[C@@H]1CC[C@]2(CNCCCN3CCS(=O)(=O)CC3)CC[C@]3(C)[C@H](CC[C@@H]4[C@@]5(C)CCN(c6ccc(C(=O)O)cc6)C(C)(C)[C@@H]5CC[C@]43C)[C@@H]12` [Example 48, 4-((4aR,6aR,6bR,8aS,11R,11aR,11bR,13aR,13bR)-8a-(((3-(1,1-dioxidothiomorpholino)propyl)amino)methyl)-4,4,6a,6b,13b-pentamethyl-11-(prop-1-en-2-yl)hexadecahydro-1H-cyclopenta[5,6]naphtho[2,1-f]isoquinolin-3(2H,4H,13bH)-yl)benzoic acid], for which the EC50 was 5 nM.

As for `C=C(C)[C@@H]1CC[C@]2(CNCCCN3CCS(=O)(=O)CC3)CC[C@]3(C)[C@H](CC[C@@H]4[C@@]5(C)CCN(c6ncc(C(=O)O)cn6)C(C)(C)[C@@H]5CC[C@]43C)[C@@H]12` [Example 49, 2-((4aR,6aR,6bR,8aS,11R,11aR,11bR,13aR,13bR)-8a-(((3-(1,1-dioxidothiomorpholino)propyl)amino)methyl)-4,4,6a,6b,13b-pentamethyl-11-(prop-1-en-2-yl)hexadecahydro-1H-cyclopenta[5,6]naphtho[2,1-f]isoquinolin-3(2H,4H,13bH)-yl)pyrimidine-5-carboxylic acid], the concentration giving a half-maximal response (EC50) was 0.7 nM.

In the case of `C=C(C)[C@@H]1CC[C@]2(CNCCCN3CCS(=O)(=O)CC3)CC[C@]3(C)[C@H](CC[C@@H]4[C@@]5(C)CCN(c6ncc(C(N)=O)cn6)C(C)(C)[C@@H]5CC[C@]43C)[C@@H]12` [Example 50, 2-((4aR,6aR,6bR,8aS,11R,11aR,11bR,13aR,13bR)-8a-(((3-(1,1-dioxidothiomorpholino)propyl)amino)methyl)-4,4,6a,6b,13b-pentamethyl-11-(prop-1-en-2-yl)hexadecahydro-1H-cyclopenta[5,6]naphtho[2,1-f]isoquinolin-3(2H,4H,13bH)-yl)pyrimidine-5-carboxamide], the half-maximal effective concentration (EC50) was 60 nM.

As for `C=C(C)[C@@H]1CC[C@]2(CN(C)CCCN3CCS(=O)(=O)CC3)CC[C@]3(C)[C@H](CC[C@@H]4[C@@]5(C)CCN(c6ccc(C(=O)O)nc6)C(C)(C)[C@@H]5CC[C@]43C)[C@@H]12` [Example 51, 5-((4aR,6aR,6bR,8aS,11R,11aR,11bR,13aR,13bR)-8a-(((3-(1,1-dioxidothiomorpholino)propyl)(methyl)amino)methyl)-4,4,6a,6b,13b-pentamethyl-11-(prop-1-en-2-yl)hexadecahydro-1H-cyclopenta[5,6]naphtho[2,1-f]isoquinolin-3(2H,4H,13bH)-yl)picolinic acid], the EC50 worked out at 26 nM.

With `C=C(C)[C@@H]1CC[C@]2(C(=O)O)CC[C@]3(C)[C@H](CC[C@@H]4[C@@]5(C)CCN(c6ncc(C(=O)O)cn6)C(C)(C)[C@@H]5CC[C@]43C)[C@@H]12` [Example 52, (4aR,6aR,6bR,8aS,11R,11aR,11bR,13aR,13bR)-3-(5-carboxypyrimidin-2-yl)-4,4,6a,6b,13b-pentamethyl-11-(prop-1-en-2-yl)icosahydro-1H-cyclopenta[5,6]naphtho[2,1-f]isoquinoline-8a-carboxylic acid], the half-maximal effective concentration (EC50) was 62 nM.
